Source: patent publication US20220235065A1 (Epizyme, Inc., priority 2016, published 2022)
Where a name gives a salt, the structure may show the parent alone.

Target: T1, recombinant purified human EHMT2 913-1193 (Homo sapiens, UniProt Q96KQ7)
T1 construct: Recombinant purified human EHMT2 913-1193 (55 μM) synthesized by Viva was used for all experiments; purchased Viva
T1 sequence (Q96KQ7 913-1193): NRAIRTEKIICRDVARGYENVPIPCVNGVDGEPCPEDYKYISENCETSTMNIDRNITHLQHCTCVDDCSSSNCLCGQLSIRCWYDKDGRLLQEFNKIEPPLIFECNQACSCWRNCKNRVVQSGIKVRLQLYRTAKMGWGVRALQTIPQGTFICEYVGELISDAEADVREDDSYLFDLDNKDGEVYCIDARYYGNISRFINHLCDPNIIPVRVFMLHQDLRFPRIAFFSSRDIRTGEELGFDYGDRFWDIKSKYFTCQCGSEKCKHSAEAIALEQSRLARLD
Assay: EHMT2 enzyme assay on histone peptide substrate (3H-SAM Flashplate)
Type: biochemical
Settings: read-out: EHMT2 PEP (IC50 μM)
Protocol: Recombinant purified human EHMT2 913-1193 (55 μM) synthesized by Viva was used for all experiments. Biotinylated histone peptides were synthesized by Biopeptide and HPLC-purified to >95% purity. Streptavidin Flashplates and seals were purchased from PerkinElmer and 384 Well V-bottom Polypropylene Plates were from Greiner. ^3H-labeled S-adenosylmethionine (3H-SAM) was obtained from American Radiolabeled Chemicals with a specific activity of 80 Ci/mmol. Unlabeled SAM and S-adenosylhomocysteine (SAH) were obtained from American Radiolabeled Chemicals and Sigma-Aldrich respectively. Flashplates were washed in a Biotek ELx-405 with 0.1% Tween. 384-well Flashplates and 96-well filter binding plates were read on a TopCount microplate reader (PerkinElmer). Compound serial dilutions were performed on a Freedom EVO (Tecan) and spotted into assay plates using a Thermo Scientific Matrix PlateMate (Thermo Scientific). Reagent cocktails were added by Multidrop Combi (Thermo Scientific).
General Procedure for EHMT2 Enzyme Assay on Histone Peptide Substrate.
10-point curves of test compounds were made on a Freedom EVO (Tecan) using serial 3-fold dilutions in DMSO, beginning at 2.5 mM (final top concentration of compound was 50 μM and the DMSO was 2%). A 1 μL aliquot of the inhibitor dilution series was spotted in a polypropylene 384-well V-bottom plate (Greiner) using a Thermo Scientific Matrix PlateMate (Thermo Scientific). The 100% inhibition control consisted of 1 mM final concentration of the product inhibitor S-adenosylhomocysteine (SAH, Sigma-Aldrich). Compounds were incubated for 30 minutes with 40 μL per well of 0.031 nM EHMT2 (recombinant purified human EHMT2 913-1193, Viva) in 1× assay buffer (20 mM Bicine [pH 7.5], 0.002% Tween 20, 0.005% Bovine Skin Gelatin and 1 mM TCEP). 10 μL per well of substrate mix comprising assay buffer, ^3H-SAM (3H-labeled S-adenosylmethionine, American Radiolabeled Chemicals, specific activity of 80 Ci/mmol), unlabeled SAM (American Radiolabeled Chemicals), and peptide representing histone H3 residues 1-15 containing C-terminal biotin (appended to a C-terminal amide-capped lysine, synthesized by Biopeptide and HPLC-purified to greater than 95% purity) were added to initiate the reaction (both substrates were present in the final reaction mixture at their respective Km values, an assay format referred to as “balanced conditions”). Reactions were incubated for 60 minutes at room temperature and quenched with 10 μL per well of 400 μM unlabeled SAM, then transferred to a 384-well streptavidin Flashplate (PerkinElmer) and washed in a Biotek ELx-405 well washer with 0.1% Tween after 60 minutes. 384-well Flashplates were read on a TopCount microplate reader (PerkinElmer).
IC50 curves were generated using triplicate wells per concentration of compound. The IC50 is the concentration of compound at which measured methylation is inhibited by 50% as interpolated from the dose response curves. IC50 values were calculated using a non-linear regression (variable slope-four parameter fit model) with by the following formula
where Top is fixed at 100% and Bottom is fixed to 0%, [I]=concentration of inhibitor, IC50=half maximal inhibitory concentration and n=Hill Slope.

Compound | IC50
CNc1cc(C)nc(Nc2ccc(OC)c(-c3cn4c(n3)CN(C)CC4)c2)n1 [Compound 6] | > 10 µM
CNc1cc(C)nc(Nc2ccc(OC)c(-c3cn4c(n3)CNCC4)c2)n1 [Compound 7] | 1 to 10 µM
CNc1cc(C)nc(Nc2ccc(OC)c(-c3nc4n(n3)CCNC4)c2)n1 [Compound 8, 2-N-(4-methoxy-3-[4H,5H,6H,7H-[1,2,4]triazolo[1,5-a]pyrazin-2-yl]phenyl)-4-N,6-dimethylpyrimidine-2,4-diamine hydrochloride] | > 10 µM
CNc1cc(C)nc(Nc2ccc(OC)c(-c3nc4n(n3)CCN(C)C4)c2)n1 [Compound 9] | > 10 µM
CNc1cc(C)nc(Nc2ccc(OC)c(-n3ncc4c3CCN(C)C4)c2)n1 [Compound 10] | 0.1 to 1 µM
CNc1cc(C)nc(Nc2ccc(OC)c(-c3nnc(C)[nH]3)c2)n1 [Compound 11] | > 10 µM
CNc1cc(C)nc(Nc2ccc(OC)c(-c3cn[nH]c3)c2)n1 [Compound 12, 2-N-[4-methoxy-3-(1H-pyrazol-4-yl)phenyl]-4-N,6-dimethylpyrimidine-2,4-diamine] | > 10 µM
CNc1cc(C)nc(Nc2ccc(OC)c(-n3cc4ccccc4n3)c2)n1 [Compound 146] | > 10 µM
CNc1cc(C)nc(Nc2ccc(OC)c(-n3cc4cc(Br)ccc4n3)c2)n1 [Compound 148] | 1 to 10 µM
CNc1cc(C)nc(Nc2ccc(OC)c(-n3cc4cncc(C)c4n3)c2)n1 [Compound 151] | 0.1 to 1 µM
CNc1cc(C)nc(Nc2ccc(OC)c(-c3ccc4nc(C)[nH]c4c3)c2)n1 [Compound 155] | > 10 µM
CNc1cc(C)nc(Nc2ccc(OC)c(-c3ccc4cc(C)[nH]c4c3)c2)n1 [Compound 156] | > 10 µM
CNc1cc(C)nc(Nc2ccc(OC)c(-c3cc4ccncc4[nH]3)c2)n1 [Compound 157, N2-(4-methoxy-3-(1H-pyrrolo[2,3-c]pyridin-2-yl)phenyl)-N4,6-dimethylpyrimidine-2,4-diamine] | < 0.1 µM
CNc1cc(C)nc(Nc2ccc(OC)c(-c3cc4cnccc4n3C)c2)n1 [Compound 158] | 0.1 to 1 µM
CNCc1cn(-c2cc(Nc3nc(C)cc(NC)n3)ccc2OC)nn1 [Compound 159, N2-(4-methoxy-3-(4-((methylamino)methyl)-1H-1,2,3-triazol-1-yl)phenyl)-N4,6-dimethylpyrimidine-2,4-diamine] | < 0.1 µM
CNc1cc(C)nc(Nc2ccc(OC)c(-n3cc(CN(C)C)c(C)n3)c2)n1 [Compound 160] | < 0.1 µM
CNc1nc2cc(-n3cc(CN(C)C)nn3)c(OC)cc2n1C [Compound 163] | 1 to 10 µM
CNc1cc(C)nc(Nc2ccc(OC)c(-n3cc(C(C)NC)nn3)c2)n1 (stereo not shown) [Compound 164] | 0.1 to 1 µM
CNc1cc(C)nc(Nc2ccc(OC)c(-n3cc(C(NC)C(F)(F)F)nn3)c2)n1 (stereo not shown) [Compound 165] | > 10 µM
CNc1cc(C)nc(Nc2ccc(OC)c(-n3cc(C(C)(C)NC)nn3)c2)n1 [Compound 166] | > 10 µM
CNc1ccnc(Nc2ccc(OC)c(-n3cnc(CN(C)C)c3)c2)n1 [Compound 170] | 0.1 to 1 µM
CNc1ccnc(Nc2ccc(OC)c(-n3cc(CN(C)C)nn3)c2)n1 [Compound 171] | < 0.1 µM
CCNCc1cn(-c2cc(Nc3nccc(NC)n3)ccc2OC)nn1 [Compound 172] | 0.1 to 1 µM
CNc1ccnc(Nc2ccc(OC)c(-n3cc(CNCC4CC4)nn3)c2)n1 [Compound 173] | 1 to 10 µM
CNc1ccnc(Nc2ccc(OC)c(-c3cc4[nH]ncc4cn3)c2)n1 [Compound 174] | > 10 µM
CNc1ccnc(Nc2ccc(OC)c(-c3cc4[nH]ccc4cn3)c2)n1 [Compound 175, N2-(4-methoxy-3-(1H-pyrrolo[3,2-c]pyridin-6-yl)phenyl)-N4-methylpyrimidine-2,4-diamine] | < 0.1 µM
CNc1ccnc(Nc2ccc(OC)c(-n3cc(C4CC4)nn3)c2)n1 [Compound 176] | 1 to 10 µM
CNc1ccnc(Nc2ccc(OC)c(-n3cc(C4COC4)nn3)c2)n1 [Compound 177] | > 10 µM

Compound | IC50
CNc1ccnc(Nc2ccc(OC)c(-c3ccc4cc[nH]c4c3)c2)n1 [Compound 178] | > 10 µM
CNCc1cnn(-c2cc3nc(NC)n(C)c3cc2OC)c1 [Compound 179] | 0.1 to 1 µM
CNCc1cnn(-c2cc(Nc3nccc(NC)n3)ccc2OC)c1 [Compound 181, N2-(4-methoxy-3-(4-((methylamino)methyl)-1H-pyrazol-1-yl)phenyl)-N4-methylpyrimidine-2,4-diamine] | < 0.1 µM
CNCc1cnn(-c2cc3nc(NC)cc(C4CCOCC4)c3cc2OC)c1 [Compound 184] | 0.1 to 1 µM
CCNCc1cnn(-c2cc(Nc3nccc(NC)n3)ccc2OC)c1 [Compound 185] | 0.1 to 1 µM
CNCc1cnn(-c2cc3c(cc2OC)C2(CCC2)C(N)=N3)c1 [Compound 186] | < 0.1 µM
CNCc1cnn(-c2cc3c(cc2OC)C2(CCC2)C(NC)=N3)c1 [Compound 187] | < 0.1 µM
CNc1cc(C)nc(Nc2cnc(OC)c(-n3cc(C4CCCN4)cn3)c2)n1 (stereo not shown) [Compound 188] | 0.1 to 1 µM
CNc1ccnc(Nc2ccc(OC)c(-n3cc(CNC4CCC4)nn3)c2)n1 [Compound 191] | 1 to 10 µM
CNC1=Nc2cc(-n3cc([C@H]4CCCN4)nn3)c(OC)cc2C12CCC2 [Compound 192] | < 0.1 µM
COc1cc2c(cc1-n1cc([C@H]3CCCN3)nn1)N=C(N)C21CCC1 [Compound 193] | < 0.1 µM
COc1cc2c(cc1-n1cc(C3CCCN3)nn1)N=C(N)C21CCC1 (stereo not shown) [Compound 194] | < 0.1 µM
COc1cc2c(cc1-n1cc([C@@H]3CCCN3)nn1)N=C(N)C21CCC1 [Compound 195] | 0.1 to 1 µM
CNc1cc(C2CCOCC2)c2cc(OC)c(-n3cc(C4CCCN4)nn3)cc2n1 (stereo not shown) [Compound 196] | 0.1 to 1 µM
CNc1cc(C)nc(Nc2ccc(OC)c(-c3[nH]c4cnccc4c3F)c2)n1 [Compound 199] | < 0.1 µM
CNc1cc(C)nc(Nc2ccc(OC)c(-c3[nH]c4cnccc4c3C)c2)n1 [Compound 200, N2-(4-methoxy-3-(3-methyl-1H-pyrrolo[2,3-c]pyridin-2-yl)phenyl)-N4,6-dimethylpyrimidine-2,4-diamine] | < 0.1 µM
CNc1cc(C)nc(Nc2ccc(OC)c(-c3cc4ncncc4[nH]3)c2)n1 [Compound 201] | 1 to 10 µM
COc1cc2c(cc1-c1cc3ccncc3[nH]1)N=C(N)C21CCC1 [Compound 202] | < 0.1 µM
CNc1cc(C)nc(Nc2cnc(OC)c(-c3cc4ccncc4[nH]3)c2)n1 [Compound 204] | 1 to 10 µM
COc1cc(NC2CCNCC2)ncc1-c1cc2ccncc2[nH]1 [Compound 205] | > 10 µM
CNc1cc(C)nc(Nc2ccc(OC)c(-c3cc4[nH]ccc4cn3)c2)n1 [Compound 206, N2-(4-methoxy-3-(1H-pyrrolo[3,2-c]pyridin-6-yl)phenyl)-N4,6-dimethylpyrimidine-2,4-diamine] | < 0.1 µM
CNc1cc(C)nc(Nc2ccc(OC)c(-c3cc4[nH]c(C)cc4cn3)c2)n1 [Compound 207] | < 0.1 µM
COc1cc(NC2CCNCC2)ncc1-c1cc2[nH]ccc2cn1 [Compound 208] | 1 to 10 µM
CNc1nc2cc(-c3cc4[nH]ccc4cn3)c(OC)cc2n1C [Compound 209] | 1 to 10 µM
CNc1cc(C)nc(Nc2ccc(OC)c(-c3cc4[nH]cnc4cn3)c2)n1 [Compound 210] | 1 to 10 µM
CNc1cc(C)nc(Nc2ccc(OC)c(-n3cc([C@@H]4CCCN4)nn3)c2)n1 [Compound 212, (S)—N2-(4-methoxy-3-(4-(pyrrolidin-2-yl)-1H-1,2,3-triazol-1-yl)phenyl)-N4,6-dimethylpyrimidine-2,4-diamine] | < 0.1 µM
CNc1cc(C)nc(Nc2ccc(OC)c(-n3cc([C@H]4CCCN4)nn3)c2)n1 [Compound 213] | 0.1 to 1 µM
